According to patent US20220386608A1, “INSECTICIDAL MIXTURES OF BIFENTHRIN AND CHLORANTRANILIPROLE” (priority 2019, published 2022):

What was measured:
Assay type in all cases: in vivo
[1] = system: S. frugiperda field strain; assay: Example 5C, protocol H: mortality on treated leaves, synergy by Colby equation; conditions: for Mortality: field strain, 96 hours, substance and dose g a.i./ha per treatment number of Table 5B
Experimental: (§1) Ratios of bifenthrin to chlorantraniliprole were evaluated on various crops and target pests as indicated in the protocol disclosed Table 5A below where “Lab.” Refers to laboratory, “No. of Treat.” refers to number of treatments, and Total refers to the total number of insects tested. In each evaluation, foliar application was done, the insecticide action was contact/ingestion and 32 insects were evaluated in each treatment.
(§2) The treatment schedule shown in Table 5B was used where “dose” refers to application rate, “ratio” refers to the ratio of bifenthrin to chlorantraniliprole on an a.i. basis.
(§3) Treatments were applied inside a sprayer chamber simulating a volume of 200 l/ha over soybean plants. After a drying period, treated leaves were removed from the plants and placed inside 16 well trays containing agar solution (2%) covered with filter paper. Two 16 well trays were prepared for each treatment (32 larvae/treatment). One 3rd instar larva from laboratory strains was placed in each well over the treated leaf. Trays were kept under controlled conditions of 25° C., photoperiod of 14:10 hours, and 60% RH. Morality was evaluated after 96 hours. Mortality is defined as dead and moribund larvae.
(§4) Synergy or antagonism was determined using the Colby Equation where: […]
(§5) X is the observed result for compound A at p grams a.e./ha. Y is the observed result for compound B at q grams a.e./ha. E is the expected result for a mixture of A and B at (p+q) g a.i./ha if there is no synergy or antagonism. If the observed value for the combination of A and B is greater than E (Obs>E) then synergy is indicated. If the observed value for the combination of A and B is less than E (Obs<E) then antagonism is indicated.
(§6) Morality on S. frugiperda was evaluated according to protocols G and H (refer to Table 5B), but where two S. frugiperda strains were tested: a laboratory strain (susceptible) and a field strain in F3 generation sampled in the 2018/2019 season in Sinop-MT region using treatment numbers 5.1 to 5.10 (refer to Table 5B). The results are reported in Tables 5E (Laboratory Strain) and 5F (Filed Strain).

[2] = system: H. armigera; assay: Example 5B, protocol B: mortality on treated leaves, synergy by Colby equation; conditions: for Mortality: mean mortality after 96 hours, substance and dose g a.i./ha per treatment number of Table 5B
Experimental: as §1, §2, §3, §4, §5
Morality on H. armigera was evaluated according to protocol B (refer to Table 5B) using treatment numbers 5.1 to 5.13 (refer to Table 5B).

[3] = system: C. includens; assay: Example 5A, protocol A: mortality on treated leaves, synergy by Colby equation; conditions: for Mortality: mean mortality after 96 hours, substance and dose g a.i./ha per treatment number of Table 5B
Experimental: as §1, §2, §3, §4, §5
Morality on C. includens was evaluated according to protocol A (refer to Table 5B) using treatment numbers 5.1, 5.3, 5.5 to 5.8 and 5.10 to 5.13 (refer to Table 5B). The results are reported in Table 5C below where mortality is the mean mortality, the E value was calculated by the Colby equation, and the synergy value is determined by dividing the mean mortality (%) by the expected value (E).

[4] = system: D. melachantus adults; assay: Example 5E, protocol F: mortality on sprayed plants after 72 hours, synergy by Colby equation; parameters: concentration or dose not given beside the values; conditions: Table 5J
Experimental: as §1, §2, §4, §5
(§7) Morality on E. heros was evaluated according to protocols C and D (refer to Table 5B). In the evaluation method, insecticides (treatment numbers 5.1, 5.3, 5.5 to 5.8 and 5.10 to 5.13 (refer to Table 5B)) were applied over soybean plants at V2 stage inside a spray chamber. After a drying period, a first portion of the plants were infested with 10 3rd instar nymphs of E. heros per plant, with three repetitions per treatment with a total of 30 nymphs per treatment. After the drying period, a second portion of the plants were infested with 10 adults of E. heros per plant, with three repetitions per treatment with a total of 30 adults per treatment. Infested plants were maintained in a greenhouse controlled at a temperature of 26° C. Mortality was evaluated after 72 hours. The results are reported in Tables 5G (nymphs) and 5H (adults).
(§8) Morality on D. melachantus was evaluated according to protocols E and F (refer to Table 5B). In the evaluation method, insecticides (treatment numbers 5.1, 5.3, 5.5 to 5.8 and 5.10 to 5.13 (refer to Table 5B)). Evaluation was done according to the method of Example 5D. The results are reported in Tables 5I (nymphs) and 5J (adults).

[5] = system: E. heros adults; assay: Example 5D, protocol D: mortality on sprayed soybean plants after 72 hours, synergy by Colby equation; parameters: concentration or dose not given beside the values; conditions: sprayed soybean plants (V2), Table 5H
Experimental: as §1, §2, §4, §5, §7

[6] = system: E. heros 3rd instar nymphs; assay: Example 5D, protocol C: mortality on sprayed soybean plants after 72 hours, synergy by Colby equation; conditions: for Mortality: E. heros 3rd instar nymphs, sprayed soybean plants (V2), after 72 hours, Table 5G
Experimental: as §1, §2, §4, §5, §7

[7] = system: D. melachantus 3rd instar nymphs; assay: Example 5E, protocol E: mortality on sprayed plants after 72 hours, synergy by Colby equation; parameters: Mortality: concentration or dose not given beside the values; conditions: for Mortality: D. melachantus nymphs, sprayed plants, after 72 hours, Table 5I
Experimental: as §1, §2, §4, §5, §7, §8

[8] = system: S. frugiperda laboratory strain (susceptible); assay: Example 5C, protocol G: mortality on treated leaves, synergy by Colby equation; conditions: 96 hours, substance and dose g a.i./ha per treatment number of Table 5B
Experimental: as §1, §2, §3, §4, §5, §6

`Cc1c(COC(=O)[C@@H]2[C@H](/C=C(\Cl)C(F)(F)F)C2(C)C)cccc1-c1ccccc1` (racemic) [Treatment 5.7, Bifenthrin] showed a Mortality ([1]; listed as 5.7) of 43.8%, a Mortality ([2]; listed as 5.7) of 0% and a Mortality ([3]; listed as 5.7) of 78.1%. The Mortality ([4]; listed as 5.7) was 100%, the Mortality ([5]; listed as 5.7) was 56.7% and the Mortality ([6]; listed as 5.7) was 76.7%. The Mortality ([7]; listed as 5.7) was 100% and the Mortality ([8]; listed as 5.7) was 96.9%.
In the case of `CNC(=O)c1cc(Cl)cc(C)c1NC(=O)c1cc(Br)nn1-c1ncccc1Cl` [Chlorantraniliprole, 5-bromo-N-[4-chloro-2-methyl-6-(methylcarbamoyl)phenyl]-2-(3-chloropyridin-2-yl)pyrazole-3-carboxamide], the “H. armigera control, in words” value ([2]; 7.5 g a.i./ha) is reported as “most effective”, the “control of C. includens, in words” value ([3]; 7.5 g a.i./ha) is reported as “most effective” and the “control of E. heros, in words” value ([6]; nymphs and adults (protocols C and D)) is reported as “did not control”. For the same compound, the “control of D. melacanthus, in words” value ([7]; nymphs and adults (protocols E and F)) was “did not control”.
With `Cc1c(COC(=O)[C@@H]2[C@H](/C=C(\Cl)C(F)(F)F)C2(C)C)cccc1-c1ccccc1` (racemic) [Bifenthrin, 2-methylbiphenyl-3-ylmethyl (Z)-(1RS)-cis-3-(2-chloro-3,3,3-trifluoroprop-1-enyl)-2,2-dimethyl cyclopropanecarboxylate] the “control of S. frugiperda, in words” value ([1]; lower doses, especially on the field strain) was “lower control” and the “H. armigera control, in words” value ([2]; even at a higher dose of 60 g a.i./ha, resistance to pyrethroids) was “lower control”.
`Cc1c(COC(=O)[C@@H]2[C@H](/C=C(\Cl)C(F)(F)F)C2(C)C)cccc1-c1ccccc1` (racemic) [Treatment 5.6, Bifenthrin] was tested, and the Mortality ([1]; listed as 5.6) was 15.6%, the Mortality ([2]; listed as 5.6) was 0% and the Mortality ([3]; listed as 5.6) was 68.8%. For the same compound, the Mortality ([4]; listed as 5.6) was 70.0%, the Mortality ([5]; listed as 5.6) was 30.0% and the Mortality ([6]; listed as 5.6) was 43.3%. The Mortality ([7]; listed as 5.6) was 70.0% and the Mortality ([8]; listed as 5.6) was 78.1%.
Compound `CNC(=O)c1cc(Cl)cc(C)c1NC(=O)c1cc(Br)nn1-c1ncccc1Cl` [Treatment 5.2, Chlorantraniliprole] has a Mortality ([1]; listed as 5.2) of 40.6%, a Mortality ([2]; listed as 5.2) of 84.4% and a Mortality ([8]; listed as 5.2) of 96.9%.
With `CNC(=O)c1cc(Cl)cc(C)c1NC(=O)c1cc(Br)nn1-c1ncccc1Cl` [Treatment 5.3, Chlorantraniliprole] the Mortality ([1]; listed as 5.3) was 59.4%, the Mortality ([2]; listed as 5.3) was 100% and the Mortality [3] was 100%. It also gave a Mortality [4] of 0%, a Mortality [5] of 3.3% and a Mortality [6] of 0%. It also gave a Mortality [7] of 7.0% and a Mortality ([8]; listed as 5.3) of 100%.
For `Cc1c(COC(=O)[C@@H]2[C@H](/C=C(\Cl)C(F)(F)F)C2(C)C)cccc1-c1ccccc1` (racemic) [Treatment 5.4, Bifenthrin], the Mortality ([1]; listed as 5.4) was 3.1%, the Mortality ([2]; listed as 5.4) was 0% and the Mortality ([8]; listed as 5.4) was 34.4%.
In the case of `Cc1c(COC(=O)[C@@H]2[C@H](/C=C(\Cl)C(F)(F)F)C2(C)C)cccc1-c1ccccc1` (racemic) [Treatment 5.5, Bifenthrin], the Mortality ([1]; listed as 5.5) is reported as 3.1%, the Mortality ([2]; listed as 5.5) is reported as 0% and the Mortality ([3]; listed as 5.5) is reported as 34.4%. The Mortality ([4]; listed as 5.5) was 39.3%, the Mortality ([5]; listed as 5.5) was 3.3% and the Mortality ([6]; listed as 5.5) was 38.9%. For the same compound, the Mortality ([7]; listed as 5.5) was 56.7% and the Mortality ([8]; listed as 5.5) was 53.1%.
With `Cc1c(COC(=O)[C@@H]2[C@H](/C=C(\Cl)C(F)(F)F)C2(C)C)cccc1-c1ccccc1` (racemic) [Treatment 5.8, Bifenthrin] the Mortality ([1]; listed as 5.8) was 43.8%, the Mortality ([2]; listed as 5.8) was 9.4% and the Mortality ([3]; listed as 5.8) was 78.1%. It also gave a Mortality ([4]; listed as 5.8) of 100%, a Mortality ([5]; listed as 5.8) of 80.0% and a Mortality ([6]; listed as 5.8) of 85.2%. The Mortality ([7]; listed as 5.8) was 100% and the Mortality ([8]; listed as 5.8) was 93.8%.
